Source: US10865191B2, “Heterocyclic compounds useful as modulators of TNF alpha” (BRISTOL-MYERS SQUIBB COMPANY, priority 2015, dated 2020)

target: TNFα (Homo sapiens, UniProt P01375); experiment: TNF induced HEK-Blue assay (NF-kB-driven secreted alkaline phosphatase reporter); format: cell-based; conditions: TNFα 0.5 ng/mL, HEK-Blue-CD40L cells, 18 h; read-out: TNF induced HEK-Blue assay IC50 value
In short: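 HEK-Blue-CD40L cells (NF-kB-driven SEAP reporter), 20,000/well, added after 30 min pre-incubation of compound (0.004–25 μM final) with TNFα 0.5 ng/mL final at 37 °C; 18 h incubation. SEAP read with QUANTI-Blue at 620 nm; IC50 from 4-parameter logistic fit, normalized to unstimulated and stimulated DMSO controls.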

Sequence of TNFα (P01375 77-233 limits assumed): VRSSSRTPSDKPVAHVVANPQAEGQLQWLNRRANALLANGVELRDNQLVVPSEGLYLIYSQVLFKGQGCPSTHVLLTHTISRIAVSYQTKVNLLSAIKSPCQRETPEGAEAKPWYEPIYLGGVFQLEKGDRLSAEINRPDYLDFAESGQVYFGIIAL

Q: Which IC50 does the source give for C[C@@H](Nc1c(Cl)cnc2ccc(-c3cnn(C)c3)cc12)c1cc(-c2cncnc2)ccc1F [Example 550, (R)-3-chloro-N-(1-(2-fluoro-5-(pyrimidin-5-yl)phenyl)ethyl)-6-(1-methyl-1H-pyrazol-4-yl)quinolin-4-amine] here?
A: < 1000 nM

Q: C[C@@H](Nc1c(Cl)cnc2ccccc12)c1cc(-c2cncc(C(=O)N3CCOCC3)c2)ccc1F [Example 551, (R)-(5-(3-(1-((3-chloroquinolin-4-yl)amino)ethyl)-4-fluorophenyl)pyridin-3-yl)(morpholino)methanone] was tested. Which IC50 did it give?
A: 1000 to 10000 nM

Q: With C[C@@H](Nc1c(Cl)cnc2ccccc12)c1cc(-c2ccccc2C#N)ccc1F [Example 552, (R)-3′-(1-((3-chloroquinolin-4-yl)amino)ethyl)-4′-fluoro-[1,1′-biphenyl]-2-carbonitrile] as the compound, how does the IC50 read?
A: < 1000 nM

Q: For C[C@@H](Nc1c(Cl)cnc2ccc(-c3cnc(C(C)(C)O)nc3)cc12)c1cc(-c2cccnc2)ccc1F [Example 553, (R)-2-(5-(3-chloro-4-((1-(2-fluoro-5-(pyridin-3-yl)phenyl)ethyl)amino)quinolin-6-yl)pyrimidin-2-yl)propan-2-ol], which IC50 is on record?
A: < 1000 nM

Q: For Cc1nc2cc(F)c(-c3cnc(C(C)(C)O)nc3)cc2c(N[C@H](C)c2cc(CC(N)=O)ccc2F)c1Cl [Example 554, (R)-2-(3-(1-((3-chloro-7-fluoro-6-(2-(2-hydroxypropan-2-yl)pyrimidin-5-yl)-2-methylquinolin-4-yl)amino)ethyl)-4-fluorophenyl)acetamide], which IC50 is on record?
A: < 1000 nM

Q: C[C@@H](Nc1c(Cl)cnc2cccnc12)c1cc(-c2cncnc2)ccc1F [Example 555, (R)-3-chloro-N-(1-(2-fluoro-5-(pyrimidin-5-yl)phenyl)ethyl)-1,5-naphthyridin-4-amine] was tested. Which IC50 did it give?
A: < 1000 nM

Q: How did the IC50 turn out when Cc1nc2ncccc2c(N[C@H](C)c2cc(-c3cncnc3)ccc2F)c1Cl [Example 556, (R)-3-chloro-N-(1-(2-fluoro-5-(pyrimidin-5-yl)phenyl)ethyl)-2-methyl-1,8-naphthyridin-4-amine] was run?
A: 10000 to 25000 nM

Q: How did the IC50 turn out when CC[C@H](Nc1c(Cl)cnc2ccccc12)c1cc(-c2cncnc2)ccc1F [Example 557, (S)-3-chloro-N-(1-(2-fluoro-5-(pyrimidin-5-yl)phenyl)propyl)quinolin-4-amine] was run?
A: 1000 to 10000 nM

Q: How did the IC50 turn out when CC[C@@H](Nc1c(Cl)cnc2ccccc12)c1cc(-c2cncnc2)ccc1F [Example 558, (R)-3-chloro-N-(1-(2-fluoro-5-(pyrimidin-5-yl)phenyl)propyl)quinolin-4-amine] was run?
A: < 1000 nM

Q: With Fc1ccc(-c2cncnc2)cc1[C@H](Nc1c(Cl)cnc2ccccc12)C(F)F [Example 559, (S)-3-chloro-N-(2,2-difluoro-1-(2-fluoro-5-(pyrimidin-5-yl)phenyl)ethyl)quinolin-4-amine] as the compound, how does the IC50 read?
A: < 1000 nM

Q: Which IC50 does the source give for Cc1nc2cc(F)c(-c3cnc(N4CCNC(=O)C4)nc3)cc2c(N[C@H](C)c2cc(Br)ccc2F)c1Cl [Example 560, (R)-4-(5-(4-((1-(5-bromo-2-fluorophenyl)ethyl)amino)-3-chloro-7-fluoro-2-methylquinolin-6-yl)pyrimidin-2-yl)piperazin-2-one] here?
A: 1000 to 10000 nM

Q: Cc1nc2cc(F)c(-c3cnc(N4CCNC(=O)C4)nc3)cc2c(N[C@H](C)c2cc(C#N)ccc2F)c1Cl [Example 561, (R)-3-(1-((3-chloro-7-fluoro-2-methyl-6-(2-(3-oxopiperazin-1-yl)pyrimidin-5-yl)quinolin-4-yl)amino)ethyl)-4-fluorobenzonitrile] was tested. Which IC50 did it give?
A: < 1000 nM

Q: For CC(Nc1c(Cl)cnc2ccc(-c3cnc(N4CCNC(=O)C4)nc3)cc12)c1nc(N)ccc1F (centres unmarked) [Example 562, 4-(5-(4-((1-(6-amino-3-fluoropyridin-2-yl)ethyl)amino)-3-chloroquinolin-6-yl)pyrimidin-2-yl) piperazin-2-one], which IC50 is on record?
A: < 1000 nM

Q: For C[C@H](Nc1c(Cl)cnc2ccc(-c3cnc(C(C)(C)O)nc3)cc12)[C@H]1CCCN(S(C)(=O)=O)C1 [Example 563, 2-(5-(3-chloro-4-(((S)-1-((S)-1-(methylsulfonyl)piperidin-3-yl)ethyl)amino)quinolin-6-yl)pyrimidin-2-yl)propan-2-ol], which IC50 is on record?
A: 1000 to 10000 nM
